According to US5662604A, “Monitoring method of renal lesions without clinical signs” (Asahi Kasei Kogyo Kabushiki Kaisha, priority 1995, dated 1997):
Several values for one entry are separate records, joined by “and”; a condition that tells them apart may be missing. Equal entries are not always repeated. Structures can show the parent of a compound that is named as a salt.

How the values were obtained:
[1] = system: membrane component of rat renal cortex; experiment: Biological activity (cAMP generation, radioimmunoassay) by parallel test against bovine-PTH (1-84) standard; type: biochemical
Excerpt: Biological activity of teriparatide acetate unit can be determined by a parallel test wherein reacting a membrane component of rat renal cortex with teriparatide acetate and assaying generated cAMP by radioimmunoassay. The specific activity of teriparatide acetate is 3,300 units/mg by a parallel test using the standard substance of bovine-PTH (1-84).

urinary NAG [2] = experiment: Urinary NAG response to intravenous h-PTH(1-34) in healthy male volunteers (Referential Example); type: in vivo
Method: Method: Fourteen (14) healthy male volunteers were used.
Prior to 60 minutes for intravenous administration of h-PTH(1-34) 100 units, complete excretion of urine was performed. 200 ml of drinking water was given to the individual volunteers and urine was collected immediately before administration of […]. Then, h-PTH(1-34) 100 units were administered intravenously and 200 ml of drinking water was given to the volunteers, and after 60 minutes urine was again collected. Each of urinary NAG and creatinine in 0.5 ml of urine was measured, and an increased ratio of urinary excreted NAG was calculated. NAG value was corrected by creatinine value.
For an assay of NAG, NAG Test Shionogi (Shionogi Pharm. Co., assay method: mcp colorimetry) was used, and for that of creatinine, creatinine-HR (Wako Pure, Chem. Co., assay method: alkali picric acid method) was used. Table 1 illustrates the various parameters, i.e. NAG, AER and serum Cr, in pre- or post-administration of PTH for healthy male volunteers.
NAG value corrected by creatinine (unit: U/g Cr) is calculated by the equation;
Urinary NAG (Unit:U/l).div.urinary creatinine (unit:mg/dl)×100.
The normal range of urinary NAG value after administration of PTH in healthy volunteers is defined according to the results obtained hereinabove as follows. The normal range is calculated by mean ±2 S.D.

urinary NAG [3] = experiment: Urinary NAG response to intravenous h-PTH(1-34) in patients with diabetes mellitus having AER below 15 μg/min (Example 2); type: in vivo
Method: The predetermined dose of h-PTH(1-34), for example, is administered intravenously in the patients to carry out the monitoring method of the present invention. The patients are diabetes mellitus patients with an AER value below 15 μg/min., showing latent abnormal renal function without detecting manifestation of abnormal renal function. The h-PTH (1-34) is, for example, administered to these patients. Urinary excreted NAG of the patients can be assayed by hydrolysing a substrate NAG, i.e. sodium-cresol-sulfophthaleinyl-N-acetyl-β-D-glucosaminide (MCP-NAG), by NAG, coloring the thus generated m-cresol purple under alkaline condition by adding sodium carbonate and measuring colorimetrically 580 nm. Urinary NAG value is expressed, for example, as U/l (NAG active unit in one liter of urine). Urinary excreted NAG of the patients before administration of PTH and that after administration of PTH are measured, and an increased ratio of urinary excreted NAG value in the post-administration of PTH against the urinary excreted NAG value in the pre-administration of PTH is calculated.
Urine of the pre-administration is collected by excretion after accumulating the urine at a constant time interval, preferably 60 min.±10 min., previously after excreting urine in the pre-administration of PTH. Collecting urine is preferably performed immediately before administration of PTH. Urine of the post-administrationis collected after accumulating the urine under the same condition in the pre-administration, i.e. after a constant time interval of 60 min.±10 min., because of performing excretion (collection) of urine immediately before administration of PTH. For effective accumulation of urine, a suitable amount of drinking water, for example 100-300 ml, may be given to the patients. Urinary NAG value can be measured using a specimen of 0.05-1 ml. Since a suitable volume of water is given to the patients, a correction of the NAG value is needed. Accordingly, a parameter of urine volume and concentration, for example another component such as urinary creatinine concentration (expressed as mg/dl) is measured, and NAG value per creatinine value is obtained. A corrected value of NAG for creatinine (Unit: U/g Cr) is calculated by;
Urinary NAG (U/l ).div.urinary creatinine (mg/dl)×100.
Method: Eighteen (18) patients with diabetes mellitus having AER within normal range (below 15 μg/min.) were used.
Sixty minutes prior to intravenous administration of 100 units of h-PTH(1-34), complete excretion of urine was performed. 200 ml of drinking water were given to the individual volunteers and urine was collected immediately before administration of h-PTH(1-34). Then 100 units of h-PTH(1-34) were administered intravenously and 200 ml of drinking water were given for intake, and after 60 minutes urine was collected. Each of urinary NAG and creatinine in 0.5 ml of urine was measured to calculate the increased ratio of urinary excreted NAG. The NAG value was corrected by creatinine value.
Tables 2 and 3 show the various parameters in pre- and post-administration of PTH for the patients of diabetes mellitus showing the value with the normal range of AER (below 15 μg/min.).

urinary excretion of NAG = conditions: intravenous; IHP and PHP patients; Calcif. Tissue Int., 45(6):375 (1989); cited from earlier work
[4] = mean of 14 healthy male volunteers, 100 units i.v., 60 min
[5] = mean of 18 diabetic patients, 100 units i.v., 60 min
[6] = of 18 diabetic patients, 100 units i.v.

## CC[C@H](C)[C@H](NC(=O)[C@H](CCC(=O)O)NC(=O)[C@H](CO)NC(=O)[C@@H](NC(=O)[C@@H](N)CO)C(C)C)C(=O)N[C@@H](CCC(N)=O)C(=O)N[C@@H](CC(C)C)C(=O)N[C@@H](CCSC)C(=O)N[C@@H](Cc1cnc[nH]1)C(=O)N[C@@H](CC(N)=O)C(=O)N[C@@H](CC(C)C)C(=O)NCC(=O)N[C@@H](CCCCN)C(=O)N[C@@H](Cc1cnc[nH]1)C(=O)N[C@@H](CC(C)C)C(=O)N[C@@H](CC(N)=O)C(=O)N[C@@H](CO)C(=O)N[C@@H](CCSC)C(=O)N[C@@H](CCC(=O)O)C(=O)N[C@@H](CCCN=C(N)N)C(=O)N[C@H](C(=O)N[C@@H](CCC(=O)O)C(=O)N[C@@H](Cc1c[nH]c2ccccc12)C(=O)N[C@@H](CC(C)C)C(=O)N[C@@H](CCCN=C(N)N)C(=O)N[C@@H](CCCCN)C(=O)N[C@@H](CCCCN)C(=O)N[C@@H](CC(C)C)C(=O)N[C@@H](CCC(N)=O)C(=O)N[C@@H](CC(=O)O)C(=O)N[C@H](C(=O)N[C@@H](Cc1cnc[nH]1)C(=O)N[C@@H](CC(N)=O)C(=O)N[C@@H](Cc1ccccc1)C(=O)O)C(C)C)C(C)C [Teriparatide hydrochloride]
[1]; Example 1, Teriparatide hydrochloride
  Specific activity of the bulk used for the injection: 3,333 teriparatide acetate units/mg

## h-PTH(1-34): h-PTH(1-34) having molecular weight about 4,400 with 34 imino acids sequence
Urinary NAG [2]; administration of human-PTH (1-34) in healthy volunteers
  Urinary excretion of NAG (in words): increased urinary excretion of NAG
Urinary NAG [2]; healthy volunteers, mean ±2 S.D.
  Normal range of increased ratio of urinary NAG in post-administration to pre-administration: 2.4-4.7
Urinary NAG [2]; individual healthy male volunteers, 100 units h-PTH(1-34) i.v., urine 60 min after
  Urinary NAG post-: 5.9 U/gCr and 8.6 U/gCr and 10.7 U/gCr and 5.7 U/gCr and 7.3 U/gCr and 11.0 U/gCr and 14.7 U/gCr and 17.0 U/gCr and 10.0 U/gCr and 19.3 U/gCr and 6.4 U/gCr and 8.3 U/gCr and 9.8 U/gCr
Urinary NAG [2]; individual healthy male volunteers, post minus pre, 100 units h-PTH(1-34) i.v., 60 min
  Urinary NAG changes: 4.3 U/gcr and 6.4 U/gcr and 7.4 U/gcr and 4.4 U/gcr and 4.9 U/gcr and 8.1 U/gcr and 9.7 U/gcr and 11.5 U/gcr and 7.3 U/gcr and 15.0 U/gcr and 5.8 U/gcr and 6.3 U/gcr and 6.2 U/gcr
Urinary NAG [2]; individual healthy male volunteers, post/pre, 100 units h-PTH(1-34) i.v., 60 min
  Urinary NAG changes in ratio: 3.8 and 3.9 and 3.3 and 4.4 and 3.1 and 3.7 and 2.9 and 3.6 and 4.1 and 3.4 and 2.8 and 2.6
Urinary NAG [2]; [4]
  Urinary NAG changes in ratio (increased ratio post-/pre-administration), mean: 3.5 and 3.5±0.6
  Urinary NAG changes, mean: 7.3 U/gcr
  Urinary NAG post-, mean: 10.3 U/gCr and 10.3±4.1 U/gCr
Urinary NAG [3]; individual diabetic patients, AER below 15 μg/min, 100 units h-PTH(1-34) i.v., urine 60 min after
  Urinary NAG post-: 7.3 U/gCr and 7.8 U/gCr and 15.6 U/gCr and 7.5 U/gCr and 11.0 U/gCr and 12.2 U/gCr and 6.8 U/gCr and 17.5 U/gCr and 10.1 U/gCr and 15.3 U/gCr and 4.5 U/gCr and 23.9 U/gCr and 13.4 U/gCr and 15.9 U/gCr and 9.7 U/gCr and 6.7 U/gCr and 16.7 U/gCr
Urinary NAG [3]; individual diabetic patients, post minus pre, 100 units h-PTH(1-34) i.v., 60 min
  Urinary NAG changes: 3.4 U/gcr and 3.9 U/gcr and 7.9 U/gcr and 3.7 U/gcr and 7.1 U/gcr and 4.9 U/gcr and 7.5 U/gcr and 5.8 U/gcr and 11.7 U/gcr and 2.2 U/gcr and 12.7 U/gcr and 8.1 U/gcr and 9.3 U/gcr and 5.1 U/gcr
Urinary NAG [3]; individual diabetic patients, post/pre, 100 units h-PTH(1-34) i.v., 60 min
  Urinary NAG changes in ratio: 1.9 and 2.0 and 2.8 and 1.7 and 2.2 and 1.8 and 2.4 and 4.3 and 1.6 and 2.1 and 2.5 and 2.3 and 3.4
Urinary NAG [3]; [5]
  Urinary NAG changes in ratio, mean: 2.3
  Urinary NAG changes, mean: 6.5 U/gcr
  Urinary NAG post-, mean: 11.8 U/gCr
Urinary NAG [3]; [6]
  Number of patients with normal increased ratio of urinary excreted NAG (2.4-4.7): 6 subjects
  Number of patients with significantly decreased increased ratio of urinary NAG (2.3), diagnosed as renal lesion without clinical symptoms of nephropathy: 12 cases
Urinary excretion of NAG
  Urinary excretion of NAG (in words): increased urinary excretion of NAG in only IHP

## teriparatide acetate
[1]; parallel test using standard substance of bovine-PTH (1-84)
  Specific activity: 3,300 units/mg
